The values below come from US8030489B2, “Ornithine derivative” (Astellas Pharma Inc., priority 2007, dated 2011).

The target in one series is T1, rat EP4 receptor (Rattus norvegicus, UniProt P43114).
T1 construct: expressed in transfected cells; host or cells: HEK293
The series can be described thus: Evaluation test on rat EP4 receptor affinity ([3H]PGE2 binding assay). The following applies: rat EP4 expressed in HEK293 membrane fraction, [3H]PGE2 0.3 nM. How it is done:
Test Example 1: Evaluation Test on Rat EP4 Receptor Affinity
Cell Culture and Transfection
Using a 10 cm collagen-coated dish (Asahi Glass), HEK293 cells were cultured in a D-MEM culture medium, washed with a phosphate buffer saline (PBS), the culture medium was removed off at a confluence (90 to 100% density state), and then the cells were detached with N,N,N′,N′-tetrakis(carboxymethyl)ethylenediamine (EDTA). The cells were counted and seeded on a 15 cm collagen-coated dish to a confluence of 70%. The next day, to an Opti-MEM culture medium at 1.2 mL/dish was added Lipofectamine 2000 (Invitrogen) at 60 μL/dish, followed by being left to stand at room temperature for 5 minutes. A plasmid in which a rat EP4 (alignment number 1) had been inserted into a TA cloning site of pcDNA3.1-V5-His-topo was added thereto to 15 μg/dish. After leaving it to stand at room temperature for 30 minutes, the resultant was added to the dish, and cultured for 20 to 24 hours. The cell culture was carried out in a CO2 incubator (37° C., 5% CO2).
Preparation of Membrane Fraction
The culture medium was removed by suction, 10 mL of cooled PBS was added thereto per 15 cm dish, and the cells were scraped using a cell scraper (Sumitomo Bakelite). They were washed with cooled PBS (1,200 rpm, 4° C., 5 min), and then suspended in 6 mL of cooled 20 mM Tris-HCl (pH 7.4; Nakalai Tesque Inc., including 5 mM EDTA (Nakalai Tesque Inc.) per dish. Then, it was homogenized using a Polytron and the homogenate was centrifuged (26,000 rpm, 20 min, 4° C.). The obtained precipitate was resuspended in cooled 20 mM Tris-HCl, and homogenized again using a Polytron, and the homogenate was centrifuged (26,000 rpm, 20 min, 4° C.). The obtained precipitate was resuspended in 50 mM HEPES (pH 7.5; Dojindo Laboratories) to 1 mL per dish, homogenized again using a Polytron, and freeze-stored at −80° C. as a membrane fraction. At this time, a part thereof was used for the measurement of the protein concentration. Measurement of the protein concentration was carried out using a Bio-Rad Protein assay kit (Bio-Rad Laboratories) in accordance with the appended standard Protocol in duplicate.
[^3H] PGE2 50 μL (final concentration 0.3 nM; Perkin Elmer), 100 μL (20 μg/well) of a membrane fraction prepared from the rat EP4 expression cell, and 50 μL of a test compound were mixed in a 96-well microplate (Sumitomo Bakelite), incubated at room temperature for 1 hour, then filtered by suction on a UniFilter-96 GF/B (Perkin Elmer) using a FilterMate Harvester (Perkin Elmer), and washed three times with 300 μL/well of a cooled assay buffer. Dilution of [^3H]PGE2 and the membrane fraction was carried out using an assay buffer (50 mM HEPES, 10 mM MgCl2), and dilution of the test compound and the unlabeled PGE2 was carried out using DMSO and an assay buffer. Further, in the case of the addition of a human serum albumin (HSA), dilution was carried out using an assay buffer containing 4% HSA (final concentration 1%; Sigma). The UniFilter-96 GF/B was treated by preliminarily washing twice with 200 μL/well of a cooled assay buffer. The UniFilter-96 GF/B after filtration was dried in a dryer overnight, 50 μL/well of MicroScint20 (Perkin Elmer) was added thereto, and then the radioactivity was measured using a TopCount (Perkin Elmer). For measurement of the non-specific binding, an unlabeled PGE2 (final concentration 1 μM; Cayman) was added. All of the measurements were carried out in duplicate, and the specific binding amount was determined by subtracting the non-specific binding amount from the total binding amount.
According to Test Example 1 as above, the rat EP4 receptor affinity (Ki) of the compound of the formula (I) was measured.

The next series can be described thus: Solubility test. It counts as physicochemical. The following applies: pH 1.2, simulated gastric fluid, kinetic from dmso stock; first liquid for disintegration test of Japanese Pharmacopoeia, 25° C., shaking 20 hours. How it is done: Test Example 3: Solubility Test
To 13 μL of a 10 mM DMSO solution of a test material that had been prepared in advance was added exactly 1 mL of a first liquid for a disintegration test of Japanese Pharmacopoeia, followed by shaking at 25° C. for 20 hours, thereby giving a sample stock solution. Next, using a filter impregnated with 200 μL of the sample stock solution, 200 μL of a fresh sample stock solution was added for filtration to obtain a liquid, which was taken as a sample solution. Apart from this, to 10 μL of the 10 mM DMSO solution of the test material was added accurately 1 mL of methanol, followed by stirring, thereby giving a standard solution. 10 μL of the sample solution and the standard solution were tested by liquid chromatography, respectively, and the ratio of the peak area of the sample solution to the peak area of the standard solution was determined, thereby calculating the solubility. For example, the solubilities of the compounds of Examples 23, 25, 31, 32, 50, 55, 57, 60, 93, and 284 were 51 μg/mL, 26 μg/mL, ≧53 μg/mL, 46 μg/mL, 47 μg/mL, ≧52 μg/mL, ≧50 μg/mL, 40 μg/mL, ≧53 μg/mL, and <1 μg/mL, respectively.

Series [1] concerns urinary albumin excretion (UAE) in STZ diabetic rats. The series can be described thus: Effect on urine albumin in streptozotocin-induced (STZ) diabetic rats. It counts as in vivo, rat. The following applies: male Wistar rats, STZ 50 mg/kg i.v.; 30 mg/kg oral, fourth week of administration; vehicle group 3.1±0.7 mg/day. How it is done: Test Example 2: Test to Study the Effect on Urine Albumin in Streptozotocin-induced (STZ) Diabetic Rats.
Eight-week old male Wistar (Crj) rats were divided into groups with unbiased urinary albumin excretion (UAE), and STZ (50 mg/kg) was intravenously administered thereto. From the next day of administration of STZ, the drug was continuously orally administered, and urine was periodically collected in a metabolism cage for 24 hours to measure the UAE.

The structures appear in SMILES notation. In brackets after ≈: the same amount, converted by molar mass.

A word on the Ki: it is the equilibrium dissociation constant of an inhibitor or competing ligand from its target. One may read the solubility as the dissolved amount per volume that the medium holds. Higher therefore signals much dissolved substance.

T1 sequence (P43114 whole entry): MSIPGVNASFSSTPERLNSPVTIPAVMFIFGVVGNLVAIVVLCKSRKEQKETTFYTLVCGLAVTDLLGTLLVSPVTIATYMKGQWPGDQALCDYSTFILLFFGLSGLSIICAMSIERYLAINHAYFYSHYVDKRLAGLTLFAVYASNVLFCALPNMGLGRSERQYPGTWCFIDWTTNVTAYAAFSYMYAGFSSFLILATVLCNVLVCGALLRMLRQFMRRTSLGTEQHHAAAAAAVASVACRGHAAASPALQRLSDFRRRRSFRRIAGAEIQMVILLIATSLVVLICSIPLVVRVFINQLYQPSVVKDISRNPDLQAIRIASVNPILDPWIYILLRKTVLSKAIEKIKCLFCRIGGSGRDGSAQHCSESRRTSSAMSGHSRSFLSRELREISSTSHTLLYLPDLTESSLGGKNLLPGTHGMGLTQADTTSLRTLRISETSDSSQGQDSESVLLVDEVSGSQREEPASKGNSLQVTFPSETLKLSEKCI

On rat EP4 receptor, `Cn1c(C(=O)N[C@@H](CCCNC(=O)OCc2ccccc2)C(=O)N[C@H]2CCCC[C@H]2C(=O)O)cc2ccccc21` [Example 22] registered a Ki of 0.53 nM.
The molecule `COc1ccc2[nH]c(C(=O)N[C@@H](CCCNC(=O)OCc3ccccc3)C(=O)N[C@H]3CCC[C@H]3c3nnn[nH]3)cc2c1` [Example 164] registered a Ki at rat EP4 receptor of 0.29 nM.
In turn, `Cn1ccc2cccc(C(=O)N[C@@H](CCCNC(=O)OCc3ccccc3)C(=O)N[C@H]3CCC[C@H]3C(=O)O)c21` [Example 93] showed a Ki on rat EP4 receptor of 0.79 nM. In addition, in the series “Solubility test”, the solubility at 20 h is at least 53 µg/mL.
The corresponding values for `Cn1ccc2ccc(C(=O)N[C@@H](CCCNC(=O)OCc3ccccc3)C(=O)N[C@H]3CCC[C@H]3C(=O)O)cc21` [Example 25] are 0.66 nM and 26 µg/mL (≈ 48.6 µM).
In turn, `CN(C)c1cccc(C(=O)N[C@@H](CCCNC(=O)OCc2ccccc2)C(=O)N[C@H]2CCC[C@H]2C(=O)O)c1` [Example 31] returned a Ki at rat EP4 receptor of 1.1 nM. Also, the solubility at 20 h in “Solubility test” was at least 53 µg/mL.
The corresponding values for `CC(=O)c1cn(C)c2cc(C(=O)N[C@@H](CCCNC(=O)OCc3ccccc3)C(=O)N[C@H]3CCC[C@H]3C(=O)O)ccc12` [Example 60] are 1.1 nM and 40 µg/mL (≈ 69.4 µM).
On rat EP4 receptor, `Cn1c(C(=O)N[C@@H](CCCNC(=O)OCc2ccccc2)C(=O)N[C@H]2CCC[C@H]2C(=O)O)cc2ccccc21` [Example 2, (1R,2S)-2-({N^5-[(benzyloxy)carbonyl]-N^2-[(1-methyl-1H-indol-2-yl)carbonyl]-L-ornithyl}amino)cyclopentanecarboxylic acid] showed a Ki of 0.92 nM.
`Cc1cc(C(=O)N[C@@H](CCCNC(=O)OCc2ccccc2)C(=O)N[C@H]2CCC[C@H]2C(=O)O)n(C)c1` [Example 57] returned a Ki at rat EP4 receptor of 0.72 nM. Also, in “Solubility test”, the solubility at 20 h was at least 50 µg/mL.
Consider `Cn1c([C@@H]2CCC[C@@H]2NC(=O)[C@H](CCCNC(=O)OCc2ccccc2)NC(=O)c2cc3ccccc3n2C)n[nH]c1=S` [Example 120], for which the affinity at rat EP4 receptor corresponds to a Ki of 9.8 nM.
Take `COc1ccc2[nH]c(C(=O)N[C@@H](CCCNC(=O)OCc3ccccc3)C(=O)N[C@H]3CCC[C@H]3C(=O)O)cc2c1` [Example 165]: the Ki at rat EP4 receptor was determined as 0.26 nM.
On the same count and under the same terms, to `Cc1cc(C)n(C)c1C(=O)N[C@@H](CCCNC(=O)OCc1ccccc1)C(=O)N[C@H]1CCC[C@H]1C(=O)O` [Example 36] belongs 9.8 nM.
The molecule `O=C(NCCC[C@H](NC(=O)c1ccc2ccccc2n1)C(=O)N[C@H]1CCC[C@H]1C(=O)O)OCc1ccccc1` [Example 23] showed a Ki at rat EP4 receptor of 0.43 nM. Besides, in series [1], the “urinary albumin excretion (UAE)” value worked out at 0.9 ± 0.1 mg/day. Besides, the concentration in solution in “Solubility test” (solubility at 20 h) came to 51 µg/mL (≈ 95.8 µM).
Regarding `O=C(/C=C/c1ccccc1O)N[C@@H](CCCNC(=O)OCc1ccccc1)C(=O)N[C@H]1CCC[C@H]1C(=O)O` [Example 55], at rat EP4 receptor, the Ki amounted to 0.92 nM. The solubility at 20 h in the series “Solubility test” is at least 52 µg/mL.
`CC(C)COC(=O)NCCC[C@H](NC(=O)c1cc2ccccc2n1C)C(=O)N[C@H]1CCC[C@H]1C(=O)O` [Example 159]: the Ki on rat EP4 receptor amounted to 6 nM.
`Cn1c(C(=O)N[C@@H](CCCNC(=O)OCc2ccccc2)C(=O)N[C@H]2CCC[C@H]2c2nnn[nH]2)cc2ccccc21` [Example 83]: the Ki at rat EP4 receptor stood at 0.52 nM.
On the same count and under the same terms, to `Cn1c(C(=O)N[C@@H](CCCNC(=O)OCc2ccccc2)C(=O)N[C@H]2CCC[C@H]2c2n[nH]c(=S)o2)cc2ccccc21` [Example 119] belongs 2.1 nM; to `COc1ccc2c(c1)cc(C(=O)N[C@@H](CCCNC(=O)OCc1ccccc1)C(=O)N[C@H]1CCC[C@H]1c1nnn[nH]1)n2C` [Example 169], 0.29 nM.
As for `Cn1ccc2c(C(=O)N[C@@H](CCCNC(=O)OCc3ccccc3)C(=O)N[C@H]3CCC[C@H]3C(=O)O)cccc21` [Example 50], on rat EP4 receptor, the Ki was found to be 0.78 nM. Besides, the concentration in solution in “Solubility test” (solubility at 20 h) came to 47 µg/mL (≈ 87.9 µM).
On rat EP4 receptor, `O=C(NCCC[C@H](NC(=O)c1cccc(Cl)n1)C(=O)N[C@H]1CCC[C@H]1C(=O)O)OCc1ccccc1` [Example 76] gave a Ki of 1.8 nM.
Still for that read-out and setting: then `Cn1c(C(=O)N[C@@H](CCCNC(=O)OCc2ccccc2)C(=O)N[C@H]2CCC[C@H]2C(=O)NS(=O)(=O)CCCO)cc2ccccc21` [Example 176], with 4 nM; and `COc1cccc(C(=O)N[C@@H](CCCNC(=O)OCc2ccccc2)C(=O)N[C@H]2CCC[C@H]2C(=O)O)c1` [Example 26], with 1.6 nM; and `Cn1c(C(=O)N[C@@H](CCCNC(=O)OCC2CCCCC2)C(=O)N[C@H]2CCC[C@H]2C(=O)O)cc2ccccc21` [Example 160], with 0.43 nM.
Molecule `O=C(NCCC[C@H](NC(=O)c1cccc(Cl)c1)C(=O)N[C@H]1CCC[C@H]1C(=O)O)OCc1ccccc1` [Example 32] yielded a Ki on rat EP4 receptor of 1.3 nM. In the series “Solubility test”, the concentration in solution (solubility at 20 h) came to 46 µg/mL (≈ 89.1 µM).
